Experimental data published in publication PMC8206078, “Identification of pyrogallol as a warhead in design of covalent inhibitors for the SARS-CoV-2 3CL protease” (Nature Communications, 2021).
“And” between values parts separate entries of the source, which are not always exact repeats. Identical values can stand only once. Like-named read-outs stand apart in the source and are kept apart here.

Assays:
[1] = for myricetin consumed: GSH, 600 min
[2] = tested on: SARS-CoV-2 replication in Vero E6 cells; experiment: microbe, parasite or virus in culture; type: cell-based
[3] = male, ICR, in vivo, po, 30 mg/kg
in vivo = conditions: male, ICR, mouse; for AUC(0-inf): AUCINF_obs; for AUC(0-t): AUClast; for MRT inf: MRTINF_obs; for half-life: T1/2
PK study in mice = conditions: mouse; for half-life: male, ICR, plasma; for T1/2: individual animals
[4] = tested on: SARS-CoV-2 replication in Vero E6 cells; conditions: cited from earlier work
[5] = biological target: chymotrypsin from bovine pancreas (Bos taurus, UniProt P00766); experiment: biochemical
in vitro = conditions: African green monkey
SARS-CoV-2 PLpro = SARS-CoV-2 PLpro (Severe acute respiratory syndrome coronavirus 2, UniProt P0DTD1); type: biochemical
[6] = iv, 10 mg/kg, Concentration in mouse plasma, Mean
[7] = po, 30 mg/kg, Concentration in mouse plasma
[8] = po, 30 mg/kg, Concentration in mouse plasma, Mean
[9] = Severe acute respiratory syndrome coronavirus 2, Vero C1008, 24 h
[10] = Severe acute respiratory syndrome coronavirus 2, Vero C1008

N-phenylacrylamide [reference compound]
kpseudo1st [1]: 0.02117 and 0.01952 and 0.0207

O=c1c(O)c(-c2cc(O)c(O)c(O)c2)oc2cc(OCC3CCCC3)cc(O)c12 [compound 6, 7-O-cyclopentylmethyl-myricetin]
inhibition ratio (%) ([2]; 100 µM): 99.992% and 99.991% and 99.989% and 98.833% and 95.7336% and 99.607% and 99.987% and 99.985% | EC50 ([2]; read-out: EC50): 10.1 µM and 7.07 µM and 5.5 µM

COc1cc(O)c2c(c1)O[C@H](c1cc(O)c(O)c(O)c1)[C@@H](O)C2=O [compound 7, 7-O-methyl dihydromyricetin]
Concentration in mouse plasma ([3]; 8 h): 11.5 ng/mL | bioavailability (in vivo): 18.1% | MRT (in vivo; iv, 10 mg/kg): 41.4 ± 51.6 min | concentration at 0.05 h (in vivo; [6]): 3190 ng/mL | concentration at 2 h (in vivo; [6]): 62.4 ng/mL | concentration at 4 h (in vivo; [6]): 23.6 ng/mL | concentration at 8 h (in vivo; [6]): 0 ng/mL | concentration at 24 h (in vivo; [6]): 0 ng/mL | MRT (in vivo; po, 30 mg/kg): 113 min | Tmax (in vivo; po, 30 mg/kg): 15 min | bioavailability (in vivo; po, 30 mg/kg): 18.1% | AUC(0-inf) (in vivo; po, 30 mg/kg): 588 ng·h/mL | AUC(0-t) (in vivo; po, 30 mg/kg): 510 ng·h/mL | concentration at 0.5 h (in vivo; [7]): 200 ng/mL | concentration at 1 h (in vivo; [7]): 112 ng/mL | concentration at 8 h (in vivo; [7]): 10.1 ng/mL | concentration at 0.5 h (in vivo; [8]): 279 ng/mL | concentration at 1 h (in vivo; [8]): 118 ng/mL | concentration at 2 h (in vivo; [8]): 61.2 ng/mL | concentration at 4 h (in vivo; [8]): 32.9 ng/mL | concentration at 8 h (in vivo; [8]): 4.32 ng/mL | concentration at 24 h (in vivo; [8]): 0 ng/mL | inhibition ratio (%) ([2]; 6.25 µM): 21.811% and 15.067% and 12.154% | inhibition ratio (%) ([2]; 25 µM): 58.083% and 57.749% and 55.409% | inhibition ratio (%) ([2]; 50 µM): 75.679% and 73.921% and 74.205% | inhibition ratio (%) ([2]; 200 µM): 99.619% and 99.626% and 99.565% | EC50 [2, 9]: 11.5 µM | half-life (PK study in mice; iv, 10 mg/kg, T1/2, mice, i.v. 10 mg/kg): 34.8 ± 37.8 min | half-life (PK study in mice; iv, 10 mg/kg, T1/2, mouse, i.v. 10 mg/kg, mean): 34.8 min | half-life (PK study in mice; po, 30 mg/kg, T1/2, mice, p.o. 30 mg/kg): 104 min | half-life (PK study in mice; po, 30 mg/kg, T1/2, mouse, p.o. 30 mg/kg, mean): 104 min | T1/2 (PK study in mice; i.v. 10 mg/kg, 10 mg/kg): 7.2 min and 97.2 min and 5.4 min and 40.2 min and 22.8 min | T1/2 (PK study in mice; p.o. 30 mg/kg, 30 mg/kg): 111 min and 187 min and 86.4 min and 78.6 min and 58.8 min

O=c1cc(-c2ccccc2)oc2cc(O)c(O)c(O)c12 [baicalein, reference compound]
EC50 [4]: 2.94 µM | adduct with GSH [1]: no adduct of GSH with baicalein was detected

O=c1c(O)c(-c2cc(O)c(O)c(O)c2)oc2cc(OP(=O)(Oc3ccccc3)Oc3ccccc3)cc(O)c12 [compound 9]
EC50 [2, 9]: 3.15 µM

O=c1c(O)c(-c2cc(O)c(O)c(O)c2)oc2cc(O)cc(O)c12 [myricetin, 3,5,7,3′,4′,5′-hexahydroxyflavone]
IC50 [5]: 132 ± 10.6 µM | times weaker than against 3CLpro [5]: more than 100 | T1/2 ([3]; mouse): 26.4 min | MRT (in vivo; ip, 10 mg/kg): 5.4 min | AUC(0-inf) (in vivo; ip, 10 mg/kg): 1040 ng·h/mL | AUC(0-t) (in vivo; ip, 10 mg/kg): 1090 ± 103 ng·h/mL | Cmax (in vivo; ip, 10 mg/kg): 1800 ± 346 ng/mL | MRT inf (in vivo; ip, 10 mg/kg): 66.6 min | half-life (in vivo; ip, 10 mg/kg): 126 ± 1.2 min | MRT (in vivo; po, 30 mg/kg): 50.4 min | AUC(0-inf) (in vivo; po, 30 mg/kg): 8.51 ng·h/mL | AUC(0-t) (in vivo; po, 30 mg/kg): 6.07 ng·h/mL | Cmax (in vivo; po, 30 mg/kg): 8.59 ng/mL | MRT inf (in vivo; po, 30 mg/kg): 50.4 min | half-life (in vivo; po, 30 mg/kg): 26.4 min | Tmax (in vivo; po, 30 mg/kg, Tmax): 30 min | EC50 [2, 9]: 8 µM | CC50 (in vitro): > 200 µM | times weaker than against 3CLpro (SARS-CoV-2 PLpro): more than 100 | myricetin consumed ([1]; absence of oxygen): 11% | Ln(%parent) ([1]; myricetin reacting with glutathione, 0h): 4.593 and 4.572 and 4.649 | Ln(%parent) ([1]; myricetin reacting with glutathione, 2h): 4.472 and 4.529 and 4.531 | Ln(%parent) ([1]; myricetin reacting with glutathione, 4h): 4.27 and 4.376 and 4.3091 | Ln(%parent) ([1]; myricetin reacting with glutathione, 6h): 4.107 and 4.203 and 4.174 | Ln(%parent) ([1]; myricetin reacting with glutathione, 8h): 3.902 and 4.0179 and 3.984 | Ln(%parent) ([1]; myricetin reacting with glutathione, 10h): 3.729 and 3.812 and 3.826 | kpseudo1st ([1]; myricetin reacting with glutathione, single independent experiment): 0.001475 and 0.001311 and 0.001403 | myricetin consumed ([1]; presence of oxygen): 65%

CCC(CC)COC(=O)[C@H](C)N[P@](=O)(OC[C@H]1O[C@@](C#N)(c2ccc3c(N)ncnn23)[C@H](O)[C@@H]1O)Oc1ccccc1 [remdesivir, reference compound]
EC50 [2, 9]: 3.68 µM

O=C1c2c(O)cc(O)cc2O[C@H](c2cc(O)c(O)c(O)c2)[C@H]1O [dihydromyricetin]
EC50 [2]: 13.9 µM and 9.94 µM and 13.7 µM and 14 µM and 17.6 µM | EC50 [2, 10]: 12.3 µM | EC50 [2, 9]: 13.6 µM

COc1cc(O)c2c(=O)c(O)c(-c3cc(O)c(O)c(O)c3)oc2c1 [compound 3, 7-O-methyl myricetin]
EC50 [2, 9]: 12.6 µM

CCC(CC)COC(=O)[C@H](C)N[P@](=O)(OC[C@H]1O[C@@](C#N)(c2ccc3c(N)ncnn23)[C@H](O)[C@@H]1O)Oc1ccccc1 [remisivir]
inhibition ratio (%) (Vero E6 cells; concentration 2.34375 (unit not given)): 99.5877% and 102.33% and 102.223% | inhibition ratio (%) (Vero E6 cells; concentration 4.6875 (unit not given)): 100.126% and 103.513% and 104.159% | inhibition ratio (%) (Vero E6 cells; concentration 9.375 (unit not given)): 103.244% and 98.6198% and 99.2113% | inhibition ratio (%) (Vero E6 cells; concentration 18.75 (unit not given)): 101.362% and 100.126% and 95.6085% | inhibition ratio (%) (Vero E6 cells; concentration 37.5 (unit not given)): 102.707% and 103.352% and 97.8132% | inhibition ratio (%) (Vero E6 cells; concentration 75 (unit not given)): 97.383% and 95.0708% and 98.7274% | inhibition ratio (%) (Vero E6 cells; concentration 150 (unit not given)): 83.7247% and 84.1011% and 85.4454% | inhibition ratio (%) (Vero E6 cells; concentration 300 (unit not given)): 42.4807% and 43.2336% and 43.126% | EC50 ([2]; read-out: EC50 (µM) Mean): 3.68 µM

O=C1c2c(O)cc(OP(=O)(Oc3ccccc3)Oc3ccccc3)cc2O[C@H](c2cc(O)c(O)c(O)c2)[C@H]1O [compound 10]
EC50 [2]: 6.99 µM and 8.24 µM and 10.2 µM and 10.4 µM and 8.4 µM | EC50 [2, 10]: 9.94 µM | EC50 [2, 9]: 9.03 µM
